From patent publication US20060252798A1, “Metal ion chelators and therapeutic use thereof” (priority 2003, published 2006)

How the values were obtained:
[1] = test system: SK-N-MC neuroepithelioma cells; experiment: MTT cellular proliferation assay, SK-N-MC; type: cell-based, human; settings: Homo sapiens, SK-N-MC; Table 3; 0-25 μM, 72 h, MTT; mean ± SD; read-out: IC50 SK-N-MC neuroepithelioma
Protocol: […] […] After this incubation, 0.01 mL of MTT was added to each well and the plates incubated for 2 h at 37° C. The cells were then solubilised by adding 0.1 mL of 10% SDS-50% isobutanol in 0.01 M HCl and the plates then read at 570 nm on a scanning multiwell spectrophotometer (Titertek Multiscan; Beckman Instruments Inc, California). MTT colour formation was directly proportional to the number of viable cells.
The effect of the compounds on the proliferation of SK-N-MC neuroepithelioma cells was examined using the MTT assay (described above).
(§1) Dp2mT served as a negative control.

SK-Mel-28 melanoma cells = experiment: MTT cellular proliferation assay, SK-Mel-28; type: cell-based, human; settings: Homo sapiens, SK-MEL-28, 72 h, Table 3, mean ± SD
Protocol: The final concentration of the compounds was 0.39-50 μM. […] […] After this incubation, 0.01 mL of MTT was added to each well and the plates incubated for 2 h at 37° C. The cells were then solubilised by adding 0.1 mL of 10% SDS-50% isobutanol in 0.01 M HCl and the plates then read at 570 nm on a scanning multiwell spectrophotometer (Titertek Multiscan; Beckman Instruments Inc, California). MTT colour formation was directly proportional to the number of viable cells.
as §1
(§2) Dp2mT served as a negative control as the methyl group at the 2-position hinders Fe-chelation.

[2] = test system: MCF-7 breast cancer cells; experiment: MTT cellular proliferation assay, MCF-7; type: cell-based, human; settings: Homo sapiens, MCF7, 72 h, Table 3; 72 h, MTT; mean ± SD; read-out: IC50 MCF-7 breast cancer
Protocol: […] […] […] After this incubation, 0.01 mL of MTT was added to each well and the plates incubated for 2 h at 37° C. The cells were then solubilised by adding 0.1 mL of 10% SDS-50% isobutanol in 0.01 M HCl and the plates then read at 570 nm on a scanning multiwell spectrophotometer (Titertek Multiscan; Beckman Instruments Inc, California). MTT colour formation was directly proportional to the number of viable cells.
as §1, §2

[3] = Maximum tolerated dose in CD2F1 hybrid mice; type: in vivo; settings: female, CD2F1, mouse, in vivo, iv
Protocol: BALB/c and DBA/2 mice were obtained from Animal Resources Centre (University of New South Wales (UNSW), Sydney, Australia) and crossed to produce CD2F1 animals (all procedures used were approved by the Animal Ethics Committee, UNSW). Groups of eight female CD2F1 mice (8-10 weeks old) were fed and watered ad-libitum, and injected via the tail vein with compounds being studied in 30% propylene glycol in 0.9% sterile saline, twice a day, 6 h apart, 5 days/week for 2 weeks. The maximum tolerated dose (MTD) was defined as the dose at which 30% of a cohort either died or lost weight in excess of 10%.^19

M109 lung carcinoma = experiment: Inhibition of M109 lung carcinoma growth in vivo; design: species or system mouse; settings: 6 mg/kg (MTD), day 12
Protocol: Inhibition of M109 Lung Cancer Cell Growth by Iron Chelators In Vivo Female CD2F1 mice aged 8-10 weeks old were sc implanted with 1×10^5 M109 cells. The tumour cells were passaged in CD2F1 mice by preparing a brei from the tumour and injecting it sc.^20 Dp44mT was dissolved in 30% (v/v) propylene glycol in saline and injected iv 4 days after tumour engraftment, twice daily for 5 days followed by a “rest period” of 2 days when the animal was not injected. On the twelfth day after tumour implantation, mice were sacrificed using methoxyfluorane and cardiac puncture performed. Blood counts and erythrocyte indices were measured using a Sysmex Blood Counter (Prince of Wales Hospital, Sydney, Australia). Mouse body weight changes during the treatment period were recorded. The tumours were weighed and fixed for histological examination. The experimental groups consisted of eight mice for the control and each treatment (Table 5).
As a relevant positive control, animals were administered Triapine® at its MTD (6 mg/kg). The tumour weight was measured on the twelfth day after the tumour cell implantation.

[4] = Mouse weight loss and haematological indices in M109-bearing mice; type: in vivo; settings: Triapine 6 mg/kg; Mean ± SEM
Protocol: The tumour cells were passaged in CD2F1 mice by preparing a brei from the tumour and injecting it sc.^20 Dp44mT was dissolved in 30% (v/v) propylene glycol in saline and injected iv 4 days after tumour engraftment, twice daily for 5 days followed by a “rest period” of 2 days when the animal was not injected. On the twelfth day after tumour implantation, mice were sacrificed using methoxyfluorane and cardiac puncture performed. Blood counts and erythrocyte indices were measured using a Sysmex Blood Counter (Prince of Wales Hospital, Sydney, Australia). Mouse body weight changes during the treatment period were recorded. The tumours were weighed and fixed for histological examination. The experimental groups consisted of eight mice for the control and each treatment (Table 5).

In the case of `NC(=S)NN=Cc1ncccc1N` [Triapine, 3-aminopyridine-2-carboxaldehyde thiosemicarbazone], the IC50 [1] is reported as 260 nM, the IC50 (SK-Mel-28 melanoma cells) is reported as 2600 ± 600 nM and the IC50 [2] is reported as 3000 ± 1500 nM. For the same compound, the MTD at 2 weeks [3] was 6 mg/kg, the tumour weight (M109 lung carcinoma) was 10 % of the control and the Body weight loss [4] was 5.3 ± 0.4 g. For the same compound, the Haematocrit [4] was 0.28 ± 0.01, the Haemoglobin [4] was 8.6 ± 0.5 g/dL and the Platelets [4] was 976 ± 171 10^9/L. For the same compound, the RBC [4] was 6.1 ± 0.4 10^12/L and the WBC [4] was 1.4 ± 0.3 10^9/L.
